According to patent US7745465B2, “Method of enhancing cellular production of molecular chaperone, hydroxylamine derivatives useful for enhancing the chaperone production and the preparation thereof” (CytRx Corporation, priority 1995, dated 2010):

What was measured:
Hsp60 = test: Western blot of hsp60 in heat shocked H9c2 cells; format: cell-based, rat
Protocol: Experiments set forth in this section were conducted to determine whether N-[2-hydroxy-3-(1-piperidinyl)propoxy]-3-pyridinecarboximidoyl chloride maleate acts to increase the expression of molecular chaperon by a cell. The accumulation of different heat shock proteins subsequent to a period of exposure to heat shock alone, and to heat shock in combination with N-[2-hydroxy-3-(1-piperidinyl)propoxy]-3-pyridinecarboximidoyl chloride maleate administration, was examined by adding 10^−5 M of N-[2-hydroxy-3-(1-piperidinyl)propoxy]-3-pyridinecarboximidoyl chloride maleate before, during, or immediately after hyperthermic treatment of heart myogenic cells (H9c2 cells).
The embryonic rat heart-derived cell line H9c2 was obtained from European Collection of Animal cell Cultures (ECACC) (88092904). The cells were maintained at 37° C. in Dulbecco's modified Eagle's medium (DMEM) supplemented with 10% fetal calf serum (GIBCO) in JOUAN C02 thermostat (5% CO2).
Heat shock was performed at 43° C. in CO2 thermostat for the given time intervals (20, 40, 60, 90 and 120 min.). Cells were then taken back to 37° C. for 6 hours and proteins were extracted for SDS-PAGE. When N-[2-hydroxy-3-(1-piperidinyl)propoxy ]-3-pyridinecarboximidoyl chloride maleate was added before heat shock. 10^−5 M N-[2-hydroxy-3-(1-piperidinyl)propoxy]-3-pyridinecarboximidoyl chloride maleate was administered for 16 hours before the stress. In other set of experiments, N-[2-hydroxy-3-(1-piperidinyl)propoxy]-3-pyridinecarboximidoyl chloride maleate was added in 10^−5 M concentration right after heat stress, during the 6 hours recovery period. The experiments were repeated three times.
For SDS-P AGE, cells were grown in 6 cm Petri dishes. The amount of the cells at the start of the experiment was 8×10^5 and were still suconfluent when proteins were extracted. After the 6 hours recovery cells were washed two times in PBS then scrapped from the surface of the dishes in PBS. […]
Protein concentration was determined from 5:1 samples by the Bradford assay (M. M. Braford, Anal. Biochem., 72: 248-254 (1976)) in three parallel. […]

HSP-70 = test: Myocardial HSP-70 protein content in isolated rat hearts (Western blot)
Protocol: In separate experiments the effects of heat stress, ischemia, N-[2-hydroxy-3-(1-piperidinyl)propoxy]-3-pyridine carboximidoyl chloride maleate and their combination were studied on myocardial HSP-70 protein content. Isolated hearts were subjected to 15 min. heat-stress (42° C.), global normothermic ischemia, and N-[2-hydroxy-3-[…](1-piperidinyl)propoxy]-3-pyridine carboximidoyl chloride maleate perfusion followed by 120 and 180 min. reperfusion, respectively.

[1] = test system: Rats with genetic hypertension; test: Morphological examination of the thoracic aorta of rats with genetic hypertension; format: in vivo, rat; details: daily oral treatment (20 mg/kg 8 days or 5 mg/kg 20 days)
Protocol: Rats with genetic hypertension were divided into four groups of four. The groups were treated daily, orally, the first group with physiological saline, the second group with N-[2-hydroxy-3-(1-piperidinyl)]-propoxy-3-pyridine-carboximidoyl-chloride maleate (20 mg/kg) for 8 days, the third group with N-[2-hydroxy-3-(1-piperidinyl)-propoxy]-benzimidoyl-chloride monohydrochloride (5 mg/kg) for 20 days and the fourth group with N-[2-hydroxy-3-(1-piperidinyl)-propoxy]-2-thiophenecarboximidoyl-chloride monohydrochloride (5 mg/kg) for 20 days. Animals were sacrificed, aortas were isolated, snap frozen in liquid nitrogen and were stored at −70° C. till they were used.
The examination was performed according to published methods (Br. J. of Pharmacol., 1995; 115, […]). A 1 mm^2 area of the thoracic aorta was excised and fixed in 2.5% glutaral-dehyde at room temperature. Post fixation was performed in 1% osmium-tetroxide for one hour. The tissue was dehydrated in ethanol and was embedded in Durcupan ACM. Pictures were taken by a Hitachi 7100 electronmicroscope and were evaluated qualitatively.

O=C(O)/C=C\C(=O)O.OC(CON=C(Cl)c1cccnc1)CN1CCCCC1 (stereo not drawn) [N-[2-hydroxy-3-(1-piperidinyl)-propoxy]3-pyridinecarboximidoyl chloride maleate]
amount of hsp60 increased (compared to 37° C. control) (Hsp60; 10^−5 M added 16 hours before heat stress, 20 min. heat treatment at 43° C.): about fivefold
effect on the level of hsp60 (Hsp60; added during the recovery phase): also effective though to a significantly lesser extent
effect on the level of hsp60 (Hsp60; treatment at 37° C., no heat shock): no measurable effect
myocardial HSP-70 content (HSP-70; compound alone): did not increase myocardial HSP-70 content
myocardial HSP-70 content (HSP-70; ischemia in the presence of 20 mg/l): increased to approximately the same level as found after heat stress
regeneration of the cells of aorta [1]: facilitated the regeneration of the cells of aorta
